Test results: patent US8182527B2, “Heparin barrier coating for controlled drug release” (Cordis Corporation, priority 2001, dated 2012)
pIC50: −log10 of the molar value.

Tests used:
[1] = system: human coronary artery smooth muscle cells; test: Anti-proliferative activity in synchronized cultured human coronary artery smooth muscle cells stimulated with two percent fetal bovine serum; format: cell-based; conditions: for effect on the anti-proliferative rapamycin dose response curve: added to cells treated with rapamycin
Text: (§1) The multiple curves represent various concentrations of topotecan ranging from zero to three hundred nanomolar concentrations.
(§2) The multiple curves represent various concentrations of etoposide ranging from zero to eight hundred nanomolar concentrations.
The multiple curves represent various concentrations of Panzem® ranging from zero to 100 micromolar concentrations.

[2] = Cell viability assay; format: cell-based
Text: as §1, §2

[3] = system: human coronary artery smooth muscle cell proliferation; test: In vitro cell culture study of coronary artery smooth muscle cell proliferation (trichostatin A); format: cell-based
Text: FIG. 51 is a graph of the inhibition of coronary artery smooth muscle cells by trichostatin A in a cell culture study.

[4] = Drug concentration in liquid formulations by liquid chromatography / HPLC; format: physicochemical
Protocol: Table 8, shown below, summarizes the concentrations of the excipient, the co-solvents and the drug for four different liquid formulations in accordance with exemplary embodiments of the present invention.
As set forth above, a liquid formulation comprising 4 mg/ml of sirolimus may be achieved utilizing PEG 200 as the excipient and ethanol and water as the co-solvents. […] The high concentration of sirolimus is necessary to maintain an effective and high local concentration of sirolimus after delivery to the site. The liquid formulations are flowable at room temperature and are compatible with a number of delivery devices. Specifically, each of these formulations were successfully injected through an infusion catheter designated by the brand name CRESCENDO™ from Cordis Corporation, Miami, Fla., as described in more detail subsequently, and the EndoBionics Micro Syringe™ Infusion Catheter available from EndoBionics, Inc., San Leandros, Calif., as described in more detail above, in porcine studies.
In another exemplary embodiment, the liquid formulation of sirolimus comprises water and ethanol as co-solvents and Vitamin E TPGS as the excipient. The liquid formulation was created utilizing the following process. Two hundred milligrams of sirolimus and two grams of ethanol were added to a pre-weighed twenty milliliter scintillation vial. […]

[5] = format: physicochemical; conditions: 0.02 weight percent per total basecoat solids
Text: Referring to FIG. 75, there is illustrated in graphical format, the results of the same drug screening as described above with the solution applied to a cobalt-chromium, 18 mm stent. In this test, two sets of solution samples were utilized, one with sirolimus and polymer solution containing the antioxidant and one with sirolimus and polymer solution containing no antioxidant. The antioxidant utilized was 0.02 weight percent BHT per total basecoat solids. The test was utilized to determine the percent drug content change over a time period of 0 to 12 weeks under two conditions; namely, 40° C. with 75 percent relative humidity, and ambient conditions (25° C.).

[6] = system: human coronary artery smooth muscle cells; test: Anti-proliferative activity in non-synchronized cultured human coronary artery smooth muscle cells stimulated with two percent fetal bovine serum; format: cell-based; conditions: for effect on the anti-proliferative rapamycin dose response curve: added to cells treated with rapamycin
Text: The multiple curves represent various concentrations of mycophenolic acid ranging from zero to one thousand nanomolar concentrations. […] This potentiation observed in cultured coronary artery smooth muscle cells preferably translates to an enhancement in anti-restenotic efficacy following vascular injury and a reduction in the required amount of either agent to achieve the desired anti-restenotic effect.
FIG. 58 illustrates, in graphical format, the anti-proliferative activity of cladribine in non-synchronized cultured human coronary artery smooth muscle cells stimulated with two percent fetal bovine serum.
The multiple curves represent various concentrations of cladribine ranging from zero to nine hundred nanomolar concentrations. […] As illustrated, the percent inhibition increases substantially as the dose of cladribine increases.

[7] = system: human coronary artery smooth muscle cell survival; test: MTS cytotoxicity assay; format: cell-based; conditions: 6.6 to 30,000.00 nanomolar tested
Text: Typically, a control is utilized to determine baseline toxicity.

CC[C@@]1(O)C(=O)OCc2c1cc1n(c2=O)Cc2cc3c(CN(C)C)c(O)ccc3nc2-1 [topotecan]
effect on the anti-proliferative rapamycin dose response curve [1]: potentiate the anti-proliferative activity of rapamycin | cytotoxicity in cell viability assay ([2]; concentrations up to one micromolar): non-cytotoxic

CC(/C=C/C(=O)NO)=C\[C@@H](C)C(=O)c1ccc(N(C)C)cc1 [trichostatin A]
inhibition of human coronary artery smooth muscle cell proliferation [3]: completely inhibit | pIC50 ([3]; human coronary artery smooth muscle cells, read-out: anti-proliferative IC50): ~8.22

CO[C@H]1C[C@@H]2CC[C@@H](C)[C@@](O)(O2)C(=O)C(=O)N2CCCC[C@H]2C(=O)O[C@H]([C@H](C)C[C@@H]2CC[C@@H](OC(=O)C(C)(CO)CO)[C@H](OC)C2)CC(=O)[C@H](C)/C=C(\C)[C@@H](O)[C@@H](OC)C(=O)[C@H](C)C[C@H](C)/C=C/C=C/C=C/1C [CCI-779]
concentration in the final solution (HPLC assay) ([4]; ethanol (less than two percent), Vitamin E TPGS and water): 15000 µg/mL

CO[C@H]1C[C@@H]2CC[C@@H](C)[C@@](O)(O2)C(=O)C(=O)N2CCCC[C@H]2C(=O)O[C@H]([C@H](C)C[C@@H]2CC[C@@H](O)[C@H](OC)C2)CC(=O)[C@H](C)/C=C(\C)[C@@H](O)[C@@H](OC)C(=O)[C@H](C)C[C@H](C)/C=C/C=C/C=C/1C [rapamycin]
concentration relative to the solubility of sirolimus in water ([4]; 4 mg/ml formulation with PEG 200, ethanol and water): about four hundred to about one thousand times higher

Cc1cc(C(C)(C)C)c(O)c(C(C)(C)C)c1 [BHT, Butylated Hydroxytoluene]
effect on drug degradation on coated stent [5]: lessens drug degradation at both 8 weeks and 12 weeks under ambient conditions

COc1cc([C@@H]2c3cc4c(cc3[C@@H](O[C@@H]3O[C@@H]5CO[C@@H](C)O[C@H]5[C@H](O)[C@H]3O)[C@H]3COC(=O)[C@H]23)OCO4)cc(OC)c1O [etoposide]
effect on the anti-proliferative rapamycin dose response curve [1]: potentiate the anti-proliferative activity of rapamycin | cytotoxicity in cell viability assay ([2]; concentrations up to ten micromolar): non-cytotoxic

Nc1nc(Cl)nc2c1ncn2[C@H]1C[C@H](O)[C@@H](CO)O1 [Cladribine, 2-chlorodeoxyadenosine]
effect on the anti-proliferative rapamycin dose response curve [6]: potentiate the anti-proliferative activity of rapamycin | inhibition of human coronary artery smooth muscle cell proliferation ([6]; two percent fetal bovine serum): completely inhibits

COc1c(C)c2c(c(O)c1C/C=C(\C)CCC(=O)O)C(=O)OC2 [mycophenolic acid]
effect on the anti-proliferative rapamycin dose response curve [6]: potentiates the anti-proliferative activity of rapamycin

COc1cc2c(cc1O)CC[C@@H]1[C@@H]2CC[C@]2(C)[C@@H](O)CC[C@@H]12 [Panzem®, 2-methoxyestradiol]
effect on the anti-proliferative rapamycin dose response curve [1]: potentiation of rapamycin by Panzem® | anti-proliferative activity ([1]; two percent fetal bovine serum, alone): extremely effective inhibitor of human coronary artery smooth muscle cell proliferation in vitro | concentrations that do not reduce human coronary artery smooth muscle cell survival [7]: up to 30,000.00 nanomolar
